Laboratory results published in article PMC8400394, “Adsorption of Recombinant Human β-Defensin 2 and Two Mutants on Mesoporous Silica Nanoparticles and Its Effect against Clavibacter michiganensis subsp. michiganensis” (Nanomaterials, 2021).

Legend:
Type in all cases: cell-based, Clavibacter michiganensis subsp. michiganensis
Cmm [1] = assay: Antimicrobial activity of AMPs by the plaque diffusion method; conditions: plaque diffusion on MHB agar with Cmm; 5, 10 and 15 μL of 50 μM; CH3COOH 10 mM pH 2.4 and Tris 50 mM pH 8.4; 24 h, 28 °C; triplicate
Procedure: (§1) Cmm was cultivated in Mueller-Hinton broth (MHB) at […] for 16 h at 180 rpm. Employing 0.5 mL of the previous culture, 50 mL of fresh MHB were inoculated. The culture was maintained under the conditions mentioned above until the OD600 reached 0.2–0.3. 9.5 mL of MHB agar prewarmed to 37 °C were added to 0.5 mL of the culture. It was homogenized and then poured onto a Petri dish containing MHB agar to form a uniform layer of 2 mm. Once the surface was dry, different volumes (5, 10 and 15 μL) of the defensins under study (50 μM) were added to the surface. The plates were incubated for 24 h at 28 °C, then the formed inhibition halos were measured. CH3COOH (acid acetic)10 mM pH 2.4 and Tris 50 mM pH 8.4 were used both as negative controls. The IC50 was determined based on that reported by Tay and Liu. This measurement was defined as the minimum concentration of AMP that is required to inhibit 50% of the growth of Cmm.

Cmm [2] = assay: Determination of IC50 of the recombinant AMPs; conditions: Cmm in MHB, minimum concentration of AMP that inhibits 50% of the growth
Procedure: as §1

Cmm [3] = assay: Antimicrobial activity of MSN/AMPs complexes in solid medium; conditions: plaque diffusion on MHB with Cmm; 5, 10, 15 µL; 24 h, 28 °C; MSN 5 mg/mL, AMPs 0.5 mg/mL; triplicate
Procedure: The antimicrobial activity of the MSN/AMPs complexes was evaluated both in solid and liquid media. For the solid medium, the adsorption process was carried out as described in the previous section. The pellet was resuspended in PBS (1 mL). Afterwards, different volumes of the MSN/AMPs mixture were deposited onto Petri dishes with MHB medium and Cmm (see antimicrobial activity test section and IC50 determination). The plates were incubated for 24 h at 28 °C, the diameter of the inhibition halos was measured. MSN (5 mg/mL) and AMPs (0.5 mg/mL) were employed as controls. These experiments were performed by triplicates.

Cmm [4] = assay: Effect of pepsin on AMPs and MSN/AMPs complexes (growth of Cmm after protease treatment); conditions: AMPs (1 mg/mL) treated with pepsin (1 mg/mL), 5:1 peptide:enzyme; then Cmm culture 28 °C, 24 h; CFU count; duplicate
Procedure: After removing the supernatant and drying the MSN/AMP complexes, 200 µL of the pepsin (1 mg/mL) were added and incubated at 37 °C for 16 h under constant shaking. The microtubes were then centrifuged at 5000× g for 10 min at 4 °C. The resulting pellet was washed twice with deionized water and centrifuged at 5000× g for 10 min at 4 °C between each wash. MSN/AMPs complexes were resuspended in 3 mL of diluted Cmm culture and incubated at 28 °C for 24 h at 180 rpm. After the incubation period, serial dilutions were performed up to 1 × 10^6 of which 100 µL were taken and Petri dishes were poured with 30 mL MHB medium. The plates were incubated at 28 °C for 72 h and the colonies were counted, bacterial growth was expressed as CFU/mL. Controls were prepared with MSN (5 mg/mL) in PBS and AMPs (1 mg/mL) treated with protease (1 mg/mL) in a 5:1 ratio (peptide:enzyme). The experiments for this assay were performed by duplicate.

Substance: human β-defensin-2 [hβD2]
- antimicrobial activity (inhibition halos) (Cmm [1]): exhibited inhibition halos
- IC50 (Cmm [2]; AMP in CH3COOH 10 mM pH 2.4): 3.64 ± 0.33 µg/mL
- IC50 (Cmm [2]; AMP in Tris 50 mM pH 8.4): 3.61 ± 0.47 µg/mL
- antimicrobial activity in solid medium (inhibition halos) (Cmm [3]): greater inhibition than MNS/hβD2
- Cmm growth inhibition after pepsin treatment, AMPs without the mesoporous matrix (Cmm [4]): 99.98%
